What all share (format): in vivo
The test system of data set [1] is subjects exhibiting allergic, atopic bronchoconstrictor response. Briefly: Clinical trial B: prophylactic efficacy compared with placebo (allergen challenge). The settings on record: vs placebo. As to the method: Suitable individual dosages, e.g. for (i)-COMPOUND as the bis-hydrogen maleate, in such clinical trials comprise e.g. ca. 1 to 25 mg administered by inhalation (for single administration or administration 2 to 3 daily) or ca. 25 to 100 mg orally (for single administration or administration 2 to 3x daily) up to ca. 200 or 300 mg orally (for single administration).
Both acute (0 to 1 hour) and long-term (up to 12 hour) change in lung function is determined post-medication by measurement of parameters (FVC, FEV 1 etc...) as set forth for clinical trial A above.
In addition to monitoring of lung function, blood eosinophil levels are also monitored and the incidence of activated eosinophils and eosinophil secretory proteins is determined. In individual studies, subjects are also subjected to lung lavage and the presence of eosinophils and platelets and their respective secretory products determined before and after exposure to allergen.

The subject of data set [2] is patients exhibiting bronchial asthma. Briefly: Clinical trial A: bronchodilator efficacy compared with placebo and/or Theophylline and with Salbutamol. From the text:
Criteria for inclusion are based on medical history and on initial examination. Subjects selected are of either sex, aged between 18 and 60 years, and identified as having a history of bronchial asthma and positive response to inhalation of β2-agonist therapy (e.g. Fenoterol or Salbutamol) or other bronchodilator therapy, e.g. with FEV-1 and/or PEFR increasing by 20% as documented 1 week before commencement of the trial. Baseline of FEV-1 and/or PEFR in each subject entered for the trial should be at least 20% below the predicted value, preferably also at the time of trial. The following exclusion criteria are applied: • - Severe chronic obstructive pulmonary disease, emphysema, active and progressive infection, status asthmaticus during the last 12 months. • - Any serious or chronic illness of the gastrointestinal system, liver or kidneys which may influence absorption, metabolism and excretion of the drugs. • - Diabetes mellitus. • - Any condition which might impair the ability of the physician to evaluate the progress of the patient.
Medication employed for the trial comprises: • A. (±)-COMPOUND (in the form of its bis-hydrogen maleate salt), in dry substance form. For administration the active ingre- ded is dissolved in pharmaceutical grade water, 30 - 60 mins. before ingestion: at a concentration of 1 g/100 ml, for administration at a dosage of 300 mg (30 ml), 200 mg (20 ml) or 100 mg (10 ml); at a concentration of 0.5 g/ 100 ml, for administration at a dosage of 50 mg (10 ml); or at a concentration of 0.25 g/100 ml for administration at a dosage of 25 mg (10 ml). • B. Theophylline solution at a dosage of 150 mg. • C. Placebo - aqueous solution only, no active ingredient. • D. Salbutamol, administered by inhalation in 3 puffs comprising 0.1 mg active ingredient/puff.
The trial is performed for each subject on 2, 3 or more separate days, each trial day being separated by a wash-out period of 3 to 7 days. […]

For another data set, the system named is asthmatic subjects. Briefly: Clinical trial C: prophylactic/bronchodilator efficacy in asthma. The settings on record: additional bronchodilator dosaging on attack. On the procedure: Initial dosaging is of the order of from 1 to 100 mg, e.g. from 5 to 50 mg per day, administered once or in divided dosages 2 or 3x daily, for administration by inhalation and of the order of from 25 to 300 mg per day administered once or in divided dosages 2 or 3x daily, for oral administration, with subsequent reduction in appropriate cases to a maintainance dosage of 1 to 50 mg, e.g. from 5 to 25 mg, per day for inhalation or from 25 to 100 or 200 mg per day orally. Administration is suitably effected in divided dosages 2 or 3x daily. During the course of the trial subjects are monitored continually and all relevant parameters recorded including lung function, alterations in the incidence of activated eosinophils or the release of eosinophil products into the blood or bronchial fluids and/or changes in the function of platelets ex vivo and, in particular,-frequency and severity of asthma exacerbation or attack. Additional bronchodilator dosaging may be provided on the occasion of any such attack.

In the next data set the test system is Guinea pigs. Briefly: Suppression of airways hyperreactivity, sensitised animals (immune complexes). The settings on record: immune-complex treated animals, labelled platelets. The text has this:
Guinea pigs are anaesthetised and airways resistance and compliance recorded as described under example lb^l above. […] Platelets are isolated and labelled with ^lllindium prior to intravenous infusion. Platelet accumulation is monitored by external crystal detectors [c.f. Morley et al. […] Allergic reaction is initiated by i.v. injection of preformed immune complexes (bovine y-globulin/ anti-bovine y-globulin), using a dose that is scarcely sufficient to induce bronchospasm at the first injection. By repeating the dose at regular (10 min.) intervals, bronchospasm of progressively increasing amplitude is evidenced. This effect is paralleled by an incremental retention of platelets within the airway vasculature. Following the last dose of immune complexes, the dose-effect relationship to histamine is re-defined. In animals so treated, induction of airways hyperreactivity is consistently observed.

SMILES strings stand for the structures.

On to `COc1cc2c(cc1OC)[C@@H]1CN(C)CC[C@@H]1N=C2c1ccc(NC(C)=O)cc1` (racemic) [cis-6-(4-acetanilido)-8,9-dimethoxy-2-methyl-1,2,3,4,4a,10b-hexahydrobenzo[c][1,6]naphthyridin], for which, in data set [1] (ca. 1 to 25 mg by inhalation or ca. 25 to 300 mg orally prior to allergen challenge), the “bronchorestrictor response to allergen” value is given as “advance protection”. Besides, in data set [1] (dosages as indicated prior to allergen challenge), the eosinophilic response result is “reduction”. In data set [2] (all instances), the “tolerance (reported side-effects and side-reactions)” value is recorded as “well tolerated”. In addition, the “results compared with therapy B (Theophylline 150 mg) or D (Salbutamol inhalation)” value in data set [2] (higher dosage rates, e.g. of 50 mg or 100 mg and more) is “approach or are at least comparable”. The lung-function result in data set [2] (oral 25 to 300 mg, compared with placebo) was “marked improvement”.

Take `COc1cc2c(cc1OC)[C@@H]1CN(C)CC[C@@H]1N=C2c1ccc(NC(C)=O)cc1` [COMPOUND, cis-6-(4-acetanilido)-8,9-dimethoxy-2-methyl-1,2,3,4,4a,10b-hexahydrobenzo[c][1,6]naphthyridin]: the “results employing COMPOUND at exacerbation or attack” value in the data set on asthmatic subjects is “symptomatic efficacy”. Moreover, the platelet accumulation result in the data set on Guinea pigs is reported as “No inhibition”.
